Where a name gives a salt, the structure may show the parent alone.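 Step 1: Grow cells in 96-well plates. Step 2: Expose to compound for 48 hours at 5 concentrations. Step 3: Interpolate endpoints linearly; if unreached, use highest concentration. GI50 is the concentration that inhibits growth by half.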 The source made the active and inactive calls. No stated cut-off is given here; in the data, active = GI50 up to about 1.1 µM and inactive = higher.
Tests used:
Assay in all cases: DTP human tumour cell line panel, 48 h
ACHN = system: ACHN
BT-549 = system: BT-549
CCRF-CEM = system: CCRF-CEM
DU-145 = system: DU-145
HCC 2998 = system: HCC 2998
HCT-116 = system: HCT-116
HL-60 = system: HL-60
HOP-92 = system: HOP-92
IGROV-1 = system: IGROV-1
K562 = system: K562
LOX IMVI = system: LOX IMVI
M19-MEL = system: M19-MEL
Malme-3M = system: Malme-3M
NCI-H226 = system: NCI-H226
NCI-H23 = system: NCI-H23
OVCAR-4 = system: OVCAR-4
OVCAR-8 = system: OVCAR-8
SF-295 = system: SF-295
SK-MEL-2 = system: SK-MEL-2
UACC-257 = system: UACC-257

Row | SMILES | GI50 (ACHN) | GI50 (BT-549) | GI50 (CCRF-CEM) | GI50 (DU-145) | GI50 (HCC 2998) | GI50 (HCT-116) | GI50 (HL-60) | GI50 (HOP-92) | GI50 (IGROV-1) | GI50 (K562) | GI50 (LOX IMVI) | GI50 (M19-MEL) | GI50 (Malme-3M) | GI50 (NCI-H226) | GI50 (NCI-H23) | GI50 (OVCAR-4) | GI50 (OVCAR-8) | GI50 (SF-295) | GI50 (SK-MEL-2) | GI50 (UACC-257)
1 | Cc1n(CC(C)C)c2c([n+]1C)C(=O)c1ccccc1C2=O | 0.432 µM (active) | 0.227 µM (active) | 0.122 µM (active) | 0.203 µM (active) | 0.108 µM (active) | 0.0494 µM (active) | 0.0405 µM (active) | 0.641 µM (active) | 0.0224 µM (active) | 0.431 µM (active) | 0.0746 µM (active) | 0.0719 µM (active) | 0.0957 µM (active) | 0.311 µM (active) | 0.0374 µM (active) | 0.0594 µM (active) | 0.0265 µM (active) | 0.415 µM (active) | 0.13 µM (active) | 0.0513 µM (active)
2 | O=C(c1ccc(F)cc1)c1cccc(C(=O)c2ccc(F)cc2)n1 | 46.2 µM (inactive) | 12.2 µM (inactive) | > 100 µM (inactive) | > 100 µM (inactive) | > 100 µM (inactive) | 22.9 µM (inactive) | > 100 µM (inactive) | 15.8 µM (inactive) | 24.9 µM (inactive) | > 100 µM (inactive) | 60.7 µM (inactive) | > 72.3 µM (inactive) | > 77.6 µM (inactive) | > 45.4 µM (inactive) | 20.2 µM (inactive) | 71.6 µM (inactive) | 81.5 µM (inactive) | 3.4 µM (inactive) | 27.7 µM (inactive) | 47.4 µM (inactive)
3 | O=C1C(Br)=CC2(C=C1Br)CCNC1=C2C2=NCCc3c[nH]c(c32)C1=O | 0.0962 µM (active) | 0.212 µM (active) | 0.0198 µM (active) | 0.811 µM (active) | 0.506 µM (active) | 0.0233 µM (active) | 0.0129 µM (active) | 0.0817 µM (active) | 0.153 µM (active) | 0.028 µM (active) | 0.0615 µM (active) | 0.0275 µM (active) | 0.0415 µM (active) | 1.27 µM (inactive) | 0.119 µM (active) | 0.0794 µM (active) | 0.0736 µM (active) | 1.25 µM (inactive) | 0.183 µM (active) | 0.101 µM (active)
4 | C/C(=N\NS(=O)(=O)c1ccc(C)cc1)C(CN(C)C)C(c1ccccc1)c1c(O)c2ccccc2oc1=O (centres undefined) | > 100 µM (inactive) | > 100 µM (inactive) | > 100 µM (inactive) | > 100 µM (inactive) | – | > 100 µM (inactive) | > 100 µM (inactive) | 60 µM (inactive) | > 100 µM (inactive) | > 84.5 µM (inactive) | > 100 µM (inactive) | > 100 µM (inactive) | > 100 µM (inactive) | > 100 µM (inactive) | > 100 µM (inactive) | > 100 µM (inactive) | > 100 µM (inactive) | > 100 µM (inactive) | > 100 µM (inactive) | > 100 µM (inactive)
5 | CC(=O)N(C)c1ccc(Nc2cc(C)nc3ccc4nc[nH]c4c23)cc1 [ACODAZOLE HYDROCHLORIDE] | 4.5 µM (inactive) | 10 µM (inactive) | 3.01 µM (inactive) | 5.81 µM (inactive) | 10.3 µM (inactive) | 4.55 µM (inactive) | 7.03 µM (inactive) | 2.55 µM (inactive) | 12.4 µM (inactive) | 8.07 µM (inactive) | 5.15 µM (inactive) | 8.97 µM (inactive) | 7.64 µM (inactive) | 6.27 µM (inactive) | 10.2 µM (inactive) | 11.7 µM (inactive) | 5.97 µM (inactive) | 14.1 µM (inactive) | 10.8 µM (inactive) | 12.7 µM (inactive)
6 | OC[C@H]1O[C@@H](n2cnc3c(S)ncnc32)[C@H](O)[C@@H]1O [THIOINOSINE] | > 2500 µM (inactive) | > 2500 µM (inactive) | 1120 µM (inactive) | 1390 µM (inactive) | > 2500 µM (inactive) | 2390 µM (inactive) | > 1760 µM (inactive) | 1050 µM (inactive) | > 2180 µM (inactive) | 1290 µM (inactive) | 1840 µM (inactive) | > 2500 µM (inactive) | 1860 µM (inactive) | > 2500 µM (inactive) | > 2500 µM (inactive) | 1520 µM (inactive) | > 2440 µM (inactive) | > 2500 µM (inactive) | 1490 µM (inactive) | > 2500 µM (inactive)

From ChEMBL document CHEMBL1201862, “PubChem BioAssay data set” (2004)
